Earlier results as cited in patent US9078864B2, “Agonists for antimicrobial peptide systems” (priority 2008, dated 2015).

Test system: shigellosis
Conditions: patients with shigellosis; unit not given; cited from earlier work

## CC(C)(C)C(=O)OCOC(=O)[C@@H]1N2C(=O)[C@@H](/N=C/N3CCCCCC3)[C@H]2SC1(C)C [pivmecillinam]
  duration of diarrhoea (mean±SD): 3.2±1.8
